# Source: ChEMBL document CHEMBL2169750, “Imidazo-benzothiazoles a potent microRNA modulator involved in cell proliferation” (Bioorg Med Chem Lett, 2012)
# Activity calls are given as the source filed them. No cut-off for these calls is given here.
# Columns and labels:
# Drosophila melanogaster [1] = assay: Toxicity in Drosophila melanogaster third instar larvae assessed as change in larvae development at 40 uM administered through feeding measured after 5 days; assay type: organism-based; conditions: in vivo, po, 120 h
# Drosophila melanogaster [2] = assay: Toxicity in Drosophila melanogaster third instar larvae assessed as change in fecundity at 40 uM administered through feeding measured after 5 days; assay type: organism-based; conditions: in vivo, po, 120 h
# COLO 205 [3] = assay: Cytotoxicity against human COLO205 cells assessed as reduction in cell viability at 0.5 to 4 uM after 48 hrs by MTT assay; assay type: functional, cell-based
# Drosophila melanogaster [4] = assay: Downregulation of miR-14 expression in Drosophila melanogaster third instar larval wing imaginal disc assessed as increase in EGFP expression at 40 uM administered through feeding measured after 5 days by confocal microscopy; assay type: functional, organism-based
# Drosophila melanogaster [5] = assay: Downregulation of miR-13a expression in Drosophila melanogaster third instar larval wing imaginal disc assessed as increase in EGFP expression at 40 uM administered through feeding measured after 5 days by confocal microscopy; assay type: functional, organism-based
# Drosophila melanogaster [6] = assay: Downregulation of bantam microRNA expression in Drosophila melanogaster third instar larval wing imaginal disc assessed as increase in EGFP expression at 40 uM administered through feeding measured after 5 days by confocal microscopy; assay type: functional, organism-based
# COLO 205 [7] = assay: Downregulation of HDAC-6 protein expression in human COLO205 cells at 4 uM after 24 hrs by Western blot analysis; assay type: functional, cell-based
# COLO 205 [8] = assay: Downregulation of HDAC-3 protein expression in human COLO205 cells at 4 uM after 24 hrs by Western blot analysis; assay type: functional, cell-based
# COLO 205 [9] = assay: Cell cycle arrest in human COLO205 cells assessed as accumulation at G2/M phase at 4 uM after 24 hrs by propidium iodide staining-based flow cytometry (reference value: 22%); assay type: functional
# COLO 205 [10] = assay: Cell cycle arrest in human COLO205 cells assessed as accumulation at S phase at 4 uM after 24 hrs by propidium iodide staining-based flow cytometry (reference value: 7%); assay type: functional
# COLO 205 [11] = assay: Cell cycle arrest in human COLO205 cells assessed as accumulation at G1 phase at 4 uM after 24 hrs by propidium iodide staining-based flow cytometry (reference value: 71%); assay type: functional
# Drosophila melanogaster [12] = assay: Upregulation of Hid expression in Drosophila melanogaster third instar larval wing imaginal disc at 10 to 100 uM administered through feeding measured after 5 days by semi quantitative RT-PCR analysis relative to control; assay type: functional
# Drosophila melanogaster [13] = assay: Effect on Ago-1 expression in Drosophila melanogaster third instar larval wing imaginal disc at 10 to 100 uM administered through feeding measured after 5 days by semi quantitative RT-PCR analysis; assay type: functional, organism-based
# Drosophila melanogaster [14] = assay: Downregulation of Dicer-1 expression in Drosophila melanogaster third instar larval wing imaginal disc at 10 to 100 uM administered through feeding measured after 5 days by semi quantitative RT-PCR analysis relative to control; assay type: functional
# Drosophila melanogaster [15] = assay: Downregulation of Pasha expression in Drosophila melanogaster third instar larval wing imaginal disc at 10 to 100 uM administered through feeding measured after 5 days by semi quantitative RT-PCR analysis relative to control; assay type: functional
# Drosophila melanogaster [16] = assay: Downregulation of Drosha expression in Drosophila melanogaster third instar larval wing imaginal disc at 10 to 100 uM administered through feeding measured after 5 days by semi quantitative RT-PCR analysis relative to control; assay type: functional
# Drosophila melanogaster [17] = assay: Downregulation of miR-13a expression in Drosophila melanogaster third instar larval wing imaginal disc assessed as increase in EGFP expression at 40 uM administered through feeding measured after 5 days by confocal microscopy relative to control; assay type: functional
# Drosophila melanogaster [18] = assay: Downregulation of bantam microRNA expression in Drosophila melanogaster third instar larval wing imaginal disc assessed as increase in EGFP expression at 40 uM administered through feeding measured after 5 days by confocal microscopy relative to control; assay type: functional
# COLO 205 [19] = assay: Cytotoxicity against human COLO205 cells assessed as decrease in AGO-2 expression at 4 uM after 24 hrs by Western blot analysis; assay type: functional, cell-based
# COLO 205 [20] = assay: Cytotoxicity against human COLO205 cells assessed as decrease in AGO-1 expression at 4 uM after 24 hrs by Western blot analysis; assay type: functional, cell-based
# COLO 205 [21] = assay: Cytotoxicity against human COLO205 cells assessed as decrease in miR-542-5p level by RT-PCR analysis; assay type: functional, cell-based
# COLO 205 [22] = assay: Cytotoxicity against human COLO205 cells assessed as increase in miR-145 level by RT-PCR analysis; assay type: functional, cell-based
# COLO 205 [23] = assay: Cytotoxicity against human COLO205 cells assessed as miR-450 expression by RT-PCR analysis; assay type: functional, cell-based
# COLO 205 [24] = assay: Induction of apoptosis in human COLO205 cells assessed as chromatin condensation at 4 uM after 24 hrs by Hoechst 33342-staining based confocal microscopy; assay type: functional, cell-based
# COLO 205 [25] = assay: Induction of apoptosis in human COLO205 cells assessed as cellular blebbing at 4 uM after 24 hrs by Hoechst 33342-staining based confocal microscopy; assay type: functional, cell-based
# COLO 205 [26] = assay: Induction of apoptosis in human COLO205 cells assessed as cellular shrinkage at 4 uM after 24 hrs by Hoechst 33342-staining based confocal microscopy; assay type: functional, cell-based
# COLO 205 [27] = assay: Induction of apoptosis in human COLO205 cells assessed as DNA fragmentation at 4 uM by tunel assay; assay type: functional, cell-based
# COLO 205 [28] = assay: Induction of apoptosis in human COLO205 cells assessed as caspase 3 expression at 4 uM after 24 hrs by fluorimetric assay in presence of Z-DEVD-FMK; assay type: functional, cell-based
# COLO 205 [29] = assay: Induction of apoptosis in human COLO205 cells assessed as caspase 9 expression at 4 uM after 24 hrs by fluorimetric assay in presence of Z-LEHD-FMK; assay type: functional, cell-based
# COLO 205 [30] = assay: Induction of apoptosis in human COLO205 cells assessed as increase in caspase 3 expression at 4 uM after 24 hrs by fluorimetric assay relative to control; assay type: functional
# COLO 205 [31] = assay: Induction of apoptosis in human COLO205 cells assessed as increase in caspase 9 expression at 4 uM after 24 hrs by fluorimetric assay relative to control; assay type: functional
# COLO 205 [32] = assay: Cytotoxicity against human COLO205 cells assessed as Dicer-1 expression at 4 uM after 24 hrs by Western blot analysis; assay type: functional, cell-based
# Drosophila melanogaster [33] = assay: Downregulation of HDAC-1 mRNA expression in Drosophila melanogaster third instar larval wing imaginal disc at 10 to 100 uM administered through feeding measured after 5 days by semi quantitative RT-PCR analysis; assay type: functional, organism-based
# Drosophila melanogaster [34] = assay: Downregulation of Sir2 mRNA expression in Drosophila melanogaster third instar larval wing imaginal disc at 10 to 100 uM administered through feeding measured after 5 days by semi quantitative RT-PCR analysis; assay type: functional, organism-based
# Drosophila melanogaster [35] = assay: Downregulation of HDAC6 mRNA expression in Drosophila melanogaster third instar larval wing imaginal disc at 10 to 100 uM administered through feeding measured after 5 days by semi quantitative RT-PCR analysis; assay type: functional, organism-based
# Drosophila melanogaster [36] = assay: Downregulation of HDAC4 mRNA expression in Drosophila melanogaster third instar larval wing imaginal disc at 10 to 100 uM administered through feeding measured after 5 days by semi quantitative RT-PCR analysis; assay type: functional, organism-based
# Drosophila melanogaster [37] = assay: Downregulation of HDAC3 mRNA expression in Drosophila melanogaster third instar larval wing imaginal disc at 10 to 100 uM administered through feeding measured after 5 days by semi quantitative RT-PCR analysis; assay type: functional, organism-based
# Drosophila melanogaster [38] = assay: Induction of apoptosis in Drosophila melanogaster third instar larval wing imaginal disc assessed as Dcp-1 activation at 10 to 100 uM administered through feeding measured after 5 days by semi quantitative RT-PCR analysis relative to control; assay type: functional
# Drosophila melanogaster [39] = assay: Induction of apoptosis in Drosophila melanogaster third instar larval wing imaginal disc assessed as Dronc activation at 10 to 100 uM administered through feeding measured after 5 days by semi quantitative RT-PCR analysis relative to control; assay type: functional
# Drosophila melanogaster [40] = assay: Downregulation of DIAP1 expression in Drosophila melanogaster third instar larval wing imaginal disc at 10 to 100 uM administered through feeding measured after 5 days by semi quantitative RT-PCR analysis; assay type: functional
# Drosophila melanogaster [41] = assay: Upregulation of Grim expression in Drosophila melanogaster third instar larval wing imaginal disc at 10 to 100 uM administered through feeding measured after 5 days by semi quantitative RT-PCR analysis relative to control; assay type: functional
# Drosophila melanogaster [42] = assay: Upregulation of Reaper expression in Drosophila melanogaster third instar larval wing imaginal disc at 10 to 100 uM administered through feeding measured after 5 days by semi quantitative RT-PCR analysis relative to control; assay type: functional
structure (smiles),measurement,setting,value
Clc1ccc(-c2nc3sc4ccccc4n3c2CN2CCCC2)cc1,Activity,Drosophila melanogaster [1],Non-toxic
same,Activity,Drosophila melanogaster [2],Non-toxic
same,Activity,COLO 205 [3],Active
Fc1ccc2c(c1)sc1nc(-c3ccccc3)c(CN3CCCC3)n12,Activity,Drosophila melanogaster [1],Non-toxic
same,Activity,Drosophila melanogaster [2],Non-toxic
same,Activity,COLO 205 [3],Active
CCOc1ccc2c(c1)sc1nc(-c3ccccc3)c(CN3CCCC3)n12,Activity,Drosophila melanogaster [1],Non-toxic
same,Activity,Drosophila melanogaster [2],Non-toxic
same,Activity,COLO 205 [3],Active
CCOc1ccc2c(c1)sc1nc(-c3ccc(Cl)cc3)c(CN3CCN(c4ccccn4)CC3)n12,Activity,Drosophila melanogaster [4],inactive
same,Activity,Drosophila melanogaster [5],Active
same,Activity,Drosophila melanogaster [6],Active
same,Activity,Drosophila melanogaster [1],Non-toxic
same,Activity,Drosophila melanogaster [2],Non-toxic
same,Activity,COLO 205 [3],Active
CCN(CC)CCOc1cccc(-c2cn3c(n2)sc2ccccc23)c1.Cl.Cl,Activity,COLO 205 [7],Active
same,Activity,COLO 205 [8],Active
same,Activity,COLO 205 [9],73%
same,Activity,COLO 205 [10],5%
same,Activity,COLO 205 [11],22%
Cc1ccc2c(c1)sc1nc(-c3ccccc3)c(CN3CCCC3)n12,Activity,Drosophila melanogaster [1],Non-toxic
same,Activity,Drosophila melanogaster [2],Non-toxic
same,Activity,COLO 205 [3],Active
Clc1ccc(-c2nc3sc4ccccc4n3c2CN2CCN(c3ccccn3)CC2)cc1,fold change (FC),Drosophila melanogaster [12],4
same,Activity,Drosophila melanogaster [13],inactive
same,fold change (FC),Drosophila melanogaster [14],3
same,fold change (FC),Drosophila melanogaster [15],2
same,fold change (FC),Drosophila melanogaster [16],4
same,fold change (FC),Drosophila melanogaster [17],3
same,fold change (FC),Drosophila melanogaster [18],5
same,Activity,Drosophila melanogaster [4],inactive
same,Activity,Drosophila melanogaster [5],Active
same,Activity,Drosophila melanogaster [6],Active
same,Activity,Drosophila melanogaster [1],Non-toxic
same,Activity,Drosophila melanogaster [2],Non-toxic
same,Activity,COLO 205 [7],Active
same,Activity,COLO 205 [8],Active
same,Activity,COLO 205 [19],Active
same,Activity,COLO 205 [20],Active
same,Activity,COLO 205 [21],Active
same,Activity,COLO 205 [22],Active
same,Activity,COLO 205 [23],inactive
same,Activity,COLO 205 [24],Active
same,Activity,COLO 205 [25],Active
same,Activity,COLO 205 [26],Active
same,Activity,COLO 205 [27],Active
same,Activity,COLO 205 [28],inactive
same,Activity,COLO 205 [29],inactive
same,fold change (FC),COLO 205 [30],3
same,fold change (FC),COLO 205 [31],2.5
same,Activity,COLO 205 [9],15%
same,Activity,COLO 205 [10],5%
same,Activity,COLO 205 [32],inactive
same,Activity,COLO 205 [3],Active
same,Activity,COLO 205 [11],80%
same,Activity,Drosophila melanogaster [33],inactive
same,Activity,Drosophila melanogaster [34],Active
same,Activity,Drosophila melanogaster [35],Active
same,Activity,Drosophila melanogaster [36],Active
same,Activity,Drosophila melanogaster [37],Active
same,fold change (FC),Drosophila melanogaster [38],3
same,fold change (FC),Drosophila melanogaster [39],3
same,fold change (FC),Drosophila melanogaster [40],5
same,fold change (FC),Drosophila melanogaster [41],3
same,fold change (FC),Drosophila melanogaster [42],2.5
c1ccc(-c2nc3sc4ccccc4n3c2CN2CCCC2)cc1,Activity,Drosophila melanogaster [1],Non-toxic
same,Activity,Drosophila melanogaster [2],Non-toxic
same,Activity,COLO 205 [3],Active
